Read-outs that look alike come from different tables or passages of the source.
Assays:
human MC-4R = molecular target: T1, human MC-4R (Homo sapiens, UniProt P32245); test: Biological Assay: inhibition of AgRP functional interaction with MC-4R in presence of αMSH (cAMP production); format: cell-based; conditions: HEK293 cells expressing human MC-4R, AgRP83-132 and αMSH present
T1 construct: expressed in transfected cells
Protocol: The following method is illustrative of techniques that may be employed to measure the ability of the compounds of Formula (I) to functionally modulate the binding of AgRP to melanocortin receptors. In particular, the assay below measures the ability of compounds of Formula (I) or pharmaceutically acceptable salts thereof to functionally modulate the binding of AgRP to MC-4R in the presence of a MC-4R agonist, such as alpha-MSH.
HEK293 cells stably expressing human MC-4R receptors were grown in high glucose Dulbecco's Modified Eagle Medium (DMEM) with 4500 mg glucose/L, L-glutamine, NaHCO3, pyrdoxin HCl, 10 mM HEPES (pH 7.4), 0.1 mM NEAA (non-essential amino acid medium) (GIBCO Cat#11140-050), 10% fetal bovine serum and 700 μg/mL G418. Cells were grown in T-225 flasks at 37° C. with CO2 and humidity control.
On the day of assay, cells were washed twice with phosphate buffered saline without calcium and magnesium (PBS) and incubated with 10 mL PBS until the cells were detached from the flask. The detached cells were centrifuged at 240 g for 5 min. The cell pellet was re-suspended in assay buffer (Earle's balanced salt solution (Sigma E3024) supplemented with 10 mM HEPES, pH 7.4, 0.5 mM IBMX and protease inhibitor cocktail (Roche, 1 complete tablet/75 mL buffer)).
The inhibitory or enhancement effect of compounds on AgRP activity was measured in a multi-component assay containing testing compounds, AgRP83-132 (human, Phoenix Pharma, cat no. 003-53), cells expressing MC-4R, and αMSH (Bachem, cat no. H-1075). Test compounds, AgRP and αMSH were diluted with assay buffer. Test compounds and AgRP were mixed to 4 times of the final concentration and incubated at room temperature for 30 min. Five μL of testing compound/AgRP solution followed with 10 μL of cells (20,000 cells/well) were added to each well of a 384-well reaction plate before 5 μL of αMSH was added. Cells were stimulated with αMSH for an additional 30 min at 37° C.
Stimulation of cells was stopped by adding a lysis buffer and cells were lysed. The intracellular concentration of cAMP may be measured by various techniques known to one of skill in the art including, but not limited to, fluorescence polarization (FP) and time-resolved fluorescence (TRF).
The inhibition was shown by an increase in MC-4R mediated cAMP production.

[1] = Pharmacokinetic screening in rats (plasma and brain); conditions: rat, 5 mg/kg PO; for concentration at 2 h: male, Sprague Dawley, po, 5 mg/kg, 2 hour time point; for Brain - 24 hours AUC (h * ng/g): 24 hour study
[2] = Stability in Liver Microsomes (human); format: in vitro ADME; conditions: 1 μM, 0.5 mg protein/mL, NADPH, 60 minutes, 37° C., pH 7.4
Protocol: (§1) Various compounds were tested for their stability in human, monkey, dog, rat, and mouse liver microsomes. At a final concentration of 1 μM, compounds were incubated with either human, monkey, dog, rat, or mouse liver microsomes (0.5 mg protein/mL) in the presence of an NADPH-solution for 60 minutes at 37° C., pH 7.4 in phosphate buffer. Incubations were performed in duplicate. Reactions were terminated by the addition of methanol. The incubation solution was vortexed and transferred into a 96-well plate. The plate was sealed and centrifuged at approximately 3500 rpm for approximately 10 minutes. After centrifugation, the plate was loaded into 96-well plate autosampler and analyzed by LC/MS. Values are reported as percent of compound remaining after 1 hour.

[3] = Stability in Liver Microsomes (monkey); format: in vitro ADME; conditions: 1 μM, 0.5 mg protein/mL, NADPH, 60 minutes, 37° C., pH 7.4
Protocol: as §1

[4] = Stability in Liver Microsomes (dog); format: in vitro ADME; conditions: 1 μM, 0.5 mg protein/mL, NADPH, 60 minutes, 37° C., pH 7.4
Protocol: as §1

[5] = Stability in Liver Microsomes (mouse); format: in vitro ADME; conditions: 1 μM, 0.5 mg protein/mL, NADPH, 60 minutes, 37° C., pH 7.4
Protocol: as §1

[6] = Stability in Liver Microsomes (rat); format: in vitro ADME; conditions: 1 μM, 0.5 mg protein/mL, NADPH, 60 minutes, 37° C., pH 7.4
Protocol: as §1

[7] = read-out: Average EC50 (nM) in Biological Assay
[8] = plasma, Plasma - 2 hours (ng/mL)

T1 sequence (P32245 whole entry): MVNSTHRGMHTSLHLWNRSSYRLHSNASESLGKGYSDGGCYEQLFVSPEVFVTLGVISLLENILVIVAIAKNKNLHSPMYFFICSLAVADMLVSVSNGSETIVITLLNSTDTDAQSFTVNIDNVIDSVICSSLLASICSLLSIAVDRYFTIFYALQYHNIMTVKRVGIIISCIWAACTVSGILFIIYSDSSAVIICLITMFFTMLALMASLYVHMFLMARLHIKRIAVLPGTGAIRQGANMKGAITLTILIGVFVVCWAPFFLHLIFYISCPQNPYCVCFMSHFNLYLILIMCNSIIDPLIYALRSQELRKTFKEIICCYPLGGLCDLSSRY

| Structure (SMILES) | EC50 (human MC-4R; [7]) [nM] | concentration at 2 h ([1]; brain, Brain - 2 hours (ng/g)) [ng/g] | concentration at 2 h [1, 8] [ng/mL] | other results |
| --- | --- | --- | --- | --- |
| CCc1ccc(CN(CCC(=O)O)c2nc(C3CCCCC3)cs2)s1 [Example 2, 3-[(4-cyclohexyl-thiazol-2-yl)-(5-ethyl-thiophen-2-ylmethyl)-amino]-propionic acid] | 135 | 80 | 261 |  |
| CCc1ccc(CN(CCC(=O)O)c2nc(CC3CCCCC3)cs2)s1 [Example 3, 3-[(4-Cyclohexylmethyl-thiazol-2-yl)-(5-ethyl-thiophen-2-ylmethyl)-amino]-propionic acid] | 246 | 691 | 2650 |  |
| CCc1ccc(CN(CCC(=O)O)c2nc(CC3CCCC3)cs2)s1 [Example 4, 3-[(4-Cyclopentylmethyl-thiazol-2-yl)-(5-ethyl-thiophen-2-ylmethyl)-amino]-propionic acid] | 324 | 98 | 590 |  |
| Cc1ccc(CN(CCC(=O)[O-])c2nc(C3(c4ccccc4)CCCCC3)cs2)s1.[Na+] [Example 6, Sodium; 3-{(5-methyl-thiophen-2-ylmethyl)-[4-(1-phenyl-cyclohexyl)-thiazol-2-yl]-amino}-propionate] | 250 | 248 | 445 | Brain - 24 hours AUC (h * ng/g) [1]: + (values less than 5,000 h*ng/g) |
| CCC1CCC(c2csc(N(CCC(=O)O)Cc3ccc(C)s3)n2)CC1 (stereo not shown) [Example 19, 3-[[4-(4-Ethyl-cyclohexyl)-thiazol-2-yl]-(5-methyl-thiophen-2-ylmethyl)-amino]-propionic acid] |  |  |  | EC50 (human MC-4R; Average EC50 (nM) in Biological Assay): 386 nM; Stability in Liver Microsomes (% remaining after 1 hour incubation) Human [2]: 43%; Stability in Liver Microsomes (% remaining after 1 hour incubation) Monkey [3]: 60%; Stability in Liver Microsomes (% remaining after 1 hour incubation) Dog [4]: 87%; Stability in Liver Microsomes (% remaining after 1 hour incubation) Mouse [5]: 73%; Stability in Liver Microsomes (% remaining after 1 hour incubation) Rat [6]: 52% |
| Cc1ccc(CN(CCC(=O)O)c2nc(C3(CC(C)C)CCCC3)cs2)s1 [Example 42, 3-[[4-(1-Isobutyl-cyclopentyl)-thiazol-2-yl]-(5-methyl-thiophen-2-ylmethyl)-amino]-propionic acid] | 116 | 42 | 50 |  |
| CCc1ccc(CN(CCC(=O)[O-])c2nc(C3(C)CCC(C)CC3)cs2)s1.[Na+] (stereo not shown) [Example 47, Sodium; 3-[[4-(1,4-dimethyl-cyclohexyl)-thiazol-2-yl]-(5-ethyl-thiophen-2-ylmethyl)-amino]-propionate] | 58 | 886 | 2090 | Brain - 24 hours AUC (h * ng/g) [1]: + (values less than 5,000 h*ng/g) |
| Cc1ccc(CN(CCC(=O)O)c2nc(C3(C)CCC(C(C)C)CC3)cs2)s1 (stereo not shown) [Example 48, Sodium; 3-[[4-(4-isopropyl-1-methyl-cyclohexyl)-thiazol-2-yl]-(5-methyl-thiophen-2-ylmethyl)-amino]-propionate] | 73 | 251 | 486 |  |
| Cc1ccc(CN(CCC(=O)O)c2nc(C3CC(C)(C)CC(C)(C)C3)cs2)s1 [Example 53, 3-{(5-methyl-thiophen-2-ylmethyl)-[4-(3,3,5,5-tetramethyl-cyclohexyl)-thiazol-2-yl]-amino}-propionic acid] | 307 |  |  |  |
| CC(C)(C)[C@H]1CC[C@H](c2csc(N(CCC(=O)O)Cc3cccs3)n2)CC1 [Reference Compound D, Sodium 3-[[4-(trans-4-tert-butyl-cyclohexyl)-thiazol-2-yl]-(thiophen-2-ylmethyl)-amino]-propionate, reference compound] |  |  |  | Stability in Liver Microsomes (% remaining after 1 hour incubation) Human [2]: 51%; Stability in Liver Microsomes (% remaining after 1 hour incubation) Monkey [3]: 76%; Stability in Liver Microsomes (% remaining after 1 hour incubation) Dog [4]: 47%; Stability in Liver Microsomes (% remaining after 1 hour incubation) Mouse [5]: 79%; Stability in Liver Microsomes (% remaining after 1 hour incubation) Rat [6]: 26% |
| O=C([O-])CCN(Cc1cccs1)c1nc(C2CCC(c3ccccc3)CC2)cs1.[Na+] (stereo not drawn) [Reference Compound E, Sodium 3-[[4-(trans-4-phenyl-cyclohexyl)-thiazol-2-yl]-(5-thiophen-2-ylmethyl)-amino]-propionate, reference compound] |  |  |  | Stability in Liver Microsomes (% remaining after 1 hour incubation) Human [2]: 60%; Stability in Liver Microsomes (% remaining after 1 hour incubation) Monkey [3]: 38%; Stability in Liver Microsomes (% remaining after 1 hour incubation) Dog [4]: 50%; Stability in Liver Microsomes (% remaining after 1 hour incubation) Mouse [5]: 51%; Stability in Liver Microsomes (% remaining after 1 hour incubation) Rat [6]: 52% |
| CCc1ccc(CN(CCC(=O)[O-])c2nc(-c3ccc(N4CCCC4)cc3)cs2)s1.[Na+] [Reference Compound F, reference compound] |  |  |  | Stability in Liver Microsomes (% remaining after 1 hour incubation) Human [2]: 40%; Stability in Liver Microsomes (% remaining after 1 hour incubation) Monkey [3]: 5%; Stability in Liver Microsomes (% remaining after 1 hour incubation) Dog [4]: 45%; Stability in Liver Microsomes (% remaining after 1 hour incubation) Mouse [5]: 30%; Stability in Liver Microsomes (% remaining after 1 hour incubation) Rat [6]: 27% |

More lines, main results first:

| EC50 (human MC-4R; [7]) [nM] | concentration at 2 h ([1]; brain, Brain - 2 hours (ng/g)) [ng/g] | concentration at 2 h [1, 8] [ng/mL] | Structure (SMILES) | other results |
| --- | --- | --- | --- | --- |
| 36 | 2980 | 7710 | CCc1ccc(CN(CCC(=O)O)c2nc(C3CCC(C)(C)CC3)cs2)s1 [Example 54, 3-[[4-(4,4-Dimethyl-cyclohexyl)-thiazol-2-yl]-(5-ethyl-thiophen-2-ylmethyl)-amino]-propionic acid] | Brain - 24 hours AUC (h * ng/g) [1]: ++++ (values above 20,000 h*ng/g) |
| 217 |  |  | Cc1ccc(CN(CCC(=O)O)c2nc(C3CCC(C)(C)CC3)c(C)s2)s1 [Example 56, Sodium; 3-[[4-(4,4-dimethyl-cyclohexyl)-5-methyl-thiazol-2-yl]-(5-methyl-thiophen-2-ylmethyl)-amino]-propionate] |  |
| 187 |  |  | Cc1ccc(CN(CCC(=O)O)c2nc(C3CC4CCCCC4C3)cs2)s1 (stereo not shown) [Example 57, 3-{(5-Methyl-thiophen-2-ylmethyl)-[4-(octahydro-inden-2-yl)-thiazol-2-yl]-amino}-propionic acid] |  |
| 94 | 720 | 1330 | CCc1ccc(CN(CCC(=O)O)c2nc(C3CC4CCCCC4C3)cs2)s1 (stereo not shown) [Example 58, 3-{(5-Ethyl-thiophen-2-ylmethyl)-[4-(octahydro-inden-2-yl)-thiazol-2-yl]-amino}-propionic acid] |  |
| 160 |  |  | Cc1cc(CN(CCC(=O)O)c2nc(C3CC4CCCCC4C3)cs2)c(C)s1 (stereo not shown) [Example 59, 3-{(2,5-Dimethyl-thiophen-3-ylmethyl)-[4-(octahydro-inden-2-yl)-thiazol-2-yl]-amino}-propionic acid] |  |
| 321 |  |  | Cc1ccc(CN(CCC(=O)O)c2nc(C3CCC4(CCCC4)CC3)cs2)s1 [Example 62, 3-[(5-methyl-thiophen-2-ylmethyl)-(4-spiro[4.5]dec-8-yl-thiazol-2-yl)-amino]-propionic acid] |  |
| 283 |  |  | Cc1ccc(CN(CCC(=O)O)c2nc(C3CCC4(CCCCC4)CC3)cs2)s1 [Example 63, 3-[(5-methyl-thiophen-2-ylmethyl)-(4-spiro[5.5]undec-3-yl-thiazol-2-yl)-amino]-propionic acid] |  |
| 90 |  |  | Cc1ccc(CN(CCC(=O)O)c2nc(CC3CCC(C)(C)CC3)cs2)s1 [Example 64, 3-[[4-(4,4-dimethyl-cyclohexylmethyl)-thiazol-2-yl]-(5-methyl-thiophen-2-ylmethyl)-amino]-propionic acid] |  |

— patent US8563742B2, “Substituted aminothiazole derivatives, pharmaceutical compositions, and methods of use” (High Point Pharmaceuticals, LLC, priority 2008, dated 2013)
